TGI and GI50 data for eight molecules are collected here from PubChem BioAssay (NCI).

Molecules are shown by their SMILES. Where “and” joins values, the source holds several entries; their conditions need not be identical. Equal values may be shown once.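 Cultured in 96-well plates, cells were exposed to test compound for 48 hours across five concentrations. GI50 = concentration required for 50% inhibition of growth. At the TGI there is no net growth.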 Bounds are passed on as bounds.

One may read the TGI as the concentration giving total growth inhibition. A high value points to less potent growth arrest. What is called GI50 is the concentration at which growth is held to half of that of the control.

For the first experiment, the system named is RXF 393 renal. The experiment can be described thus: DTP human tumour cell line panel, 48 h.
Molecule `CCOC(=O)c1c(NC(=O)c2ccccc2)c(C#N)c2n1CCCCC2` displayed a TGI above 100 µM.

In turn, `O=C(NCCC1CNc2ccccc21)OCc1ccccc1` (centres undefined) returned a total growth inhibition concentration (TGI) above 100 µM.

In turn, `c1cc(-c2ccc(-c3ccsc3)s2)cs1` registered a TGI above 100 µM.

`COc1ccc(CCCCNCc2cccc(CNCCCCc3ccc(OC)cc3)c2)cc1` yielded a concentration for total growth inhibition (TGI) of 3.28 µM.

`N#Cc1sc2nc3ccccc3n2c1N` came in with a TGI of 67.6 µM.

Molecule `COc1ccc(OC)c2sc(N3C(=O)/C(=C/c4cccc(Oc5ccccc5)c4)N=C3c3ccccc3)nc12` came in with a concentration for total growth inhibition (TGI) above 100 µM.

On to `COc1cc([C@@H]2c3cc4c(cc3[C@@H](Nc3ccc(NC(=O)c5cc([N+](=O)[O-])cn5C)cc3)[C@H]3COC(=O)[C@H]23)OCO4)cc(OC)c1O`, for which the TGI was above 100 µM.

Another experiment has as its system ACHN renal. The experiment can be described thus: DTP human tumour cell line panel, 48 h.
For `COc1ccc(-c2oc3cc(-c4cc5oc(-c6ccc(OC)cc6)c(-c6ccc(OC)cc6)c5cc4OC)c(OC)cc3c2-c2ccc(OC)cc2)cc1`, the TGI was above 100 µM.

In the case of `CCOC(=O)c1c(NC(=O)c2ccccc2)c(C#N)c2n1CCCCC2`, the total growth inhibition concentration (TGI) was above 100 µM.

The molecule `O=C(NCCC1CNc2ccccc21)OCc1ccccc1` (centres undefined) returned a concentration for total growth inhibition (TGI) above 100 µM.

`c1cc(-c2ccc(-c3ccsc3)s2)cs1` had a TGI above 100 µM.

The molecule `COc1ccc(CCCCNCc2cccc(CNCCCCc3ccc(OC)cc3)c2)cc1` had a TGI of 3.47 µM.

With `N#Cc1sc2nc3ccccc3n2c1N`, the TGI is above 100 µM.

The molecule `COc1ccc(OC)c2sc(N3C(=O)/C(=C/c4cccc(Oc5ccccc5)c4)N=C3c3ccccc3)nc12` gave a TGI above 100 µM.

Take `COc1cc([C@@H]2c3cc4c(cc3[C@@H](Nc3ccc(NC(=O)c5cc([N+](=O)[O-])cn5C)cc3)[C@H]3COC(=O)[C@H]23)OCO4)cc(OC)c1O`: the TGI was 0.484 µM and 0.164 µM.

Another experiment relates to SK-MEL-2 melanoma. The experiment can be described thus: DTP human tumour cell line panel, 48 h.
For the molecule `O=C(NCCC1CNc2ccccc21)OCc1ccccc1` (centres undefined), the concentration for total growth inhibition (TGI) is above 100 µM.

Turning to `COc1ccc(CCCCNCc2cccc(CNCCCCc3ccc(OC)cc3)c2)cc1`, the TGI turned out to be 3.53 µM.

`N#Cc1sc2nc3ccccc3n2c1N`: the TGI turned out to be 81.7 µM.

Consider `COc1ccc(OC)c2sc(N3C(=O)/C(=C/c4cccc(Oc5ccccc5)c4)N=C3c3ccccc3)nc12`, for which the total growth inhibition concentration (TGI) was above 100 µM.

In a further experiment the test system is HCC-2998 colon. The experiment can be described thus: DTP human tumour cell line panel, 48 h.
Turning to `COc1ccc(-c2oc3cc(-c4cc5oc(-c6ccc(OC)cc6)c(-c6ccc(OC)cc6)c5cc4OC)c(OC)cc3c2-c2ccc(OC)cc2)cc1`, the TGI is above 100 µM.

Regarding `CCOC(=O)c1c(NC(=O)c2ccccc2)c(C#N)c2n1CCCCC2`, the TGI is above 100 µM.

The molecule `O=C(NCCC1CNc2ccccc21)OCc1ccccc1` (centres undefined) registered a TGI above 100 µM.

`c1cc(-c2ccc(-c3ccsc3)s2)cs1` came in with a TGI above 100 µM.

For `COc1ccc(CCCCNCc2cccc(CNCCCCc3ccc(OC)cc3)c2)cc1`, the total growth inhibition concentration (TGI) came to 0.922 µM.

As to `N#Cc1sc2nc3ccccc3n2c1N`, the concentration for total growth inhibition (TGI) was above 100 µM.

Molecule `COc1ccc(OC)c2sc(N3C(=O)/C(=C/c4cccc(Oc5ccccc5)c4)N=C3c3ccccc3)nc12` displayed a TGI above 100 µM.

As for `COc1cc([C@@H]2c3cc4c(cc3[C@@H](Nc3ccc(NC(=O)c5cc([N+](=O)[O-])cn5C)cc3)[C@H]3COC(=O)[C@H]23)OCO4)cc(OC)c1O`, the TGI is 0.8 µM and 0.872 µM.

Another experiment relates to SK-OV-3 ovarian. The experiment can be described thus: DTP human tumour cell line panel, 48 h.
Turning to `COc1ccc(-c2oc3cc(-c4cc5oc(-c6ccc(OC)cc6)c(-c6ccc(OC)cc6)c5cc4OC)c(OC)cc3c2-c2ccc(OC)cc2)cc1`, the total growth inhibition concentration (TGI) is above 100 µM.

On to `CCOC(=O)c1c(NC(=O)c2ccccc2)c(C#N)c2n1CCCCC2`, for which the TGI was above 100 µM.

In turn, `O=C(NCCC1CNc2ccccc21)OCc1ccccc1` (centres undefined) registered a TGI above 100 µM.

On to `c1cc(-c2ccc(-c3ccsc3)s2)cs1`, for which the TGI is above 100 µM.

In turn, `COc1ccc(CCCCNCc2cccc(CNCCCCc3ccc(OC)cc3)c2)cc1` had a TGI of 4.02 µM.

In turn, `N#Cc1sc2nc3ccccc3n2c1N` returned a TGI above 100 µM.

With `COc1ccc(OC)c2sc(N3C(=O)/C(=C/c4cccc(Oc5ccccc5)c4)N=C3c3ccccc3)nc12`, the TGI was above 100 µM.

As for `COc1cc([C@@H]2c3cc4c(cc3[C@@H](Nc3ccc(NC(=O)c5cc([N+](=O)[O-])cn5C)cc3)[C@H]3COC(=O)[C@H]23)OCO4)cc(OC)c1O`, the GI50 is 0.104 µM and 0.262 µM; the TGI was > 100 µM and 19.1 µM.

A further experiment relates to M14 melanoma. The experiment can be described thus: DTP human tumour cell line panel, 48 h.
Regarding `COc1ccc(-c2oc3cc(-c4cc5oc(-c6ccc(OC)cc6)c(-c6ccc(OC)cc6)c5cc4OC)c(OC)cc3c2-c2ccc(OC)cc2)cc1`, the TGI was above 100 µM.

On to `CCOC(=O)c1c(NC(=O)c2ccccc2)c(C#N)c2n1CCCCC2`, for which the TGI was above 100 µM.

In the case of `O=C(NCCC1CNc2ccccc21)OCc1ccccc1` (centres undefined), the TGI is above 100 µM.

As to `c1cc(-c2ccc(-c3ccsc3)s2)cs1`, the TGI is above 100 µM.

For `COc1ccc(CCCCNCc2cccc(CNCCCCc3ccc(OC)cc3)c2)cc1`, the TGI turned out to be 3.5 µM.

Consider `N#Cc1sc2nc3ccccc3n2c1N`, for which the TGI was above 100 µM.

The molecule `COc1ccc(OC)c2sc(N3C(=O)/C(=C/c4cccc(Oc5ccccc5)c4)N=C3c3ccccc3)nc12` returned a TGI above 100 µM.

Regarding `COc1cc([C@@H]2c3cc4c(cc3[C@@H](Nc3ccc(NC(=O)c5cc([N+](=O)[O-])cn5C)cc3)[C@H]3COC(=O)[C@H]23)OCO4)cc(OC)c1O`, the TGI is 2.47 µM and 4.94 µM.

A further experiment concerns NCI-H460 lung. The experiment can be described thus: DTP human tumour cell line panel, 48 h.
`COc1ccc(-c2oc3cc(-c4cc5oc(-c6ccc(OC)cc6)c(-c6ccc(OC)cc6)c5cc4OC)c(OC)cc3c2-c2ccc(OC)cc2)cc1` registered a concentration for total growth inhibition (TGI) above 100 µM.

The molecule `CCOC(=O)c1c(NC(=O)c2ccccc2)c(C#N)c2n1CCCCC2` displayed a total growth inhibition concentration (TGI) above 100 µM.

Regarding `O=C(NCCC1CNc2ccccc21)OCc1ccccc1` (centres undefined), the total growth inhibition concentration (TGI) is above 100 µM.

As to `c1cc(-c2ccc(-c3ccsc3)s2)cs1`, the TGI was above 100 µM.

`COc1ccc(CCCCNCc2cccc(CNCCCCc3ccc(OC)cc3)c2)cc1` yielded a concentration for total growth inhibition (TGI) above 19.7 µM.

Regarding `COc1ccc(OC)c2sc(N3C(=O)/C(=C/c4cccc(Oc5ccccc5)c4)N=C3c3ccccc3)nc12`, the concentration for total growth inhibition (TGI) was above 100 µM.

With `COc1cc([C@@H]2c3cc4c(cc3[C@@H](Nc3ccc(NC(=O)c5cc([N+](=O)[O-])cn5C)cc3)[C@H]3COC(=O)[C@H]23)OCO4)cc(OC)c1O`, the TGI was 0.174 µM and 0.0745 µM.

Another experiment deals with HOP-62 NSCLC. The experiment can be described thus: DTP human tumour cell line panel, 48 h.
In the case of `COc1ccc(-c2oc3cc(-c4cc5oc(-c6ccc(OC)cc6)c(-c6ccc(OC)cc6)c5cc4OC)c(OC)cc3c2-c2ccc(OC)cc2)cc1`, the concentration for total growth inhibition (TGI) was above 100 µM.

Molecule `CCOC(=O)c1c(NC(=O)c2ccccc2)c(C#N)c2n1CCCCC2` had a total growth inhibition concentration (TGI) above 100 µM.

In turn, `O=C(NCCC1CNc2ccccc21)OCc1ccccc1` (centres undefined) returned a concentration for total growth inhibition (TGI) above 100 µM.

The molecule `c1cc(-c2ccc(-c3ccsc3)s2)cs1` registered a TGI above 100 µM.

For the molecule `COc1ccc(CCCCNCc2cccc(CNCCCCc3ccc(OC)cc3)c2)cc1`, the concentration for total growth inhibition (TGI) amounted to 4.99 µM.

In turn, `N#Cc1sc2nc3ccccc3n2c1N` showed a TGI above 100 µM.

`COc1ccc(OC)c2sc(N3C(=O)/C(=C/c4cccc(Oc5ccccc5)c4)N=C3c3ccccc3)nc12` gave a TGI above 100 µM.

With `COc1cc([C@@H]2c3cc4c(cc3[C@@H](Nc3ccc(NC(=O)c5cc([N+](=O)[O-])cn5C)cc3)[C@H]3COC(=O)[C@H]23)OCO4)cc(OC)c1O`, the TGI is 0.174 µM and 0.127 µM.
